# Test results reported in US20020137929A1, “1 - (3-heterocyclylphenyl) isothiourea, -isourea, -guanidine and -amidine herbicidal agents” (Intellectual Property Department, BASF Aktiengesellschaft, priority 1998, published 2002).
# How the values were obtained:
# AMBEL (Ragweed, Common) = assay: Postemergence herbicidal evaluation; type: in vivo, Ambrosia artemisifolia; settings: for AMBEL herbicidal rating: postemergence
# Procedure, shortened: (§1)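 Rate range approx. 0.0156–0.500 kg/ha. Foliar application at 40 psi to ~2-week seedlings; surfactant 0.5% TWEEN 20 in 50/50 acetone/water. Evaluation 4–5 wk post-treatment by 0–9 visual injury score, means of replicate tests.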
# CASOB (Sicklepod) [1] = assay: Postemergence herbicidal evaluation; type: in vivo, Cassia obtusifolia; settings: for CASOB herbicidal rating: postemergence
# Procedure, shortened: as §1
# GALAP (Galium) = assay: Postemergence herbicidal evaluation; type: in vivo, Galium aparine; settings: for GALAP herbicidal rating: postemergence
# Procedure, shortened: as §1
# [2] = system: IPOHE (Morningglory, Ivyleaf); assay: Postemergence herbicidal evaluation; type: in vivo, Ipomoea hederacea; settings: for IPOHE herbicidal rating: postemergence
# Procedure, shortened: as §1
# ABUTH (Velvetleaf) = assay: Preemergence herbicidal evaluation; type: in vivo, Abutilon theophrasti; settings: rated 4-5 weeks after treatment; for ABUTH rating: preemergence, 0-9 scale
# Procedure, shortened: (§2)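 Test compound, dissolved in aqueous acetone, was sprayed over planted soil cups at an equivalent of about 0.0156 to 0.500 kg/ha; seeds had been mixed with potting soil. Greenhouse growth followed, with visual 0-9 scoring of injury at four to five weeks.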
# CASOB (Sicklepod) [3] = assay: Preemergence herbicidal evaluation; type: in vivo, Cassia obtusifolia; settings: rated 4-5 weeks after treatment; for CASOB rating: preemergence, 0-9 scale
# Procedure, shortened: as §2
# [4] = system: IPOHE (Morningglory, Ivyleaf); assay: Preemergence herbicidal evaluation; type: in vivo, Ipomoea hederacea; settings: rated 4-5 weeks after treatment; for IPOHE rating: preemergence, 0-9 scale
# Procedure, shortened: as §2
# ECHCG (Barnyardgrass) = assay: Preemergence herbicidal evaluation; type: in vivo, Echinochloa crus-galli; settings: rated 4-5 weeks after treatment; for ECHCG rating: preemergence, 0-9 scale
# Procedure, shortened: as §2
# [5] = system: GLXMAW (Soybean, Williams); assay: Preemergence herbicidal evaluation; type: in vivo, Glycine max, (L.) Merr. cv Williams; settings: rated 4-5 weeks after treatment; for GLXMAW rating: preemergence, 0-9 scale
# Procedure, shortened: as §2
# [6] = system: TRZAWR (Wheat, Winter, cv Riband); assay: Preemergence herbicidal evaluation; type: in vivo, Triticum aestivum; settings: rated 4-5 weeks after treatment; for TRZAWR rating: preemergence, 0-9 scale
# Procedure, shortened: as §2
# ZEAMX (Corn, Field) = assay: Preemergence herbicidal evaluation; type: in vivo, Zea mays; settings: rated 4-5 weeks after treatment; for ZEAMX rating: preemergence, 0-9 scale
# Procedure, shortened: as §2
# MOOVA (Monochoria) = assay: Preemergence weed control under flooded paddy conditions; type: in vivo, Monochoria vaginalis; settings: rated 3-4 weeks after treatment
# Procedure, shortened: (§3)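 Using flooded silt loam (water 1.5 to 3 cm deep), seeds sown in the top 0.5 cm were exposed preemergence to compound pipetted into the flood at about 0.0313 to 0.500 kg/ha. Effects were scored 0-9 by eye three to four weeks later.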
# [7] = system: SAGPY (Arrowhead (Pygmaea)); assay: as above; type: in vivo, Sagittaria pygmaea; settings: rated 3-4 weeks after treatment
# Procedure, shortened: as §3
# CYPIR (Rice Flatsedge) = assay: Postemergence weed control under flooded paddy conditions; type: in vivo, Cyperus iria; settings: postemergence weeds
# Procedure, shortened: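 Herbicidal effect is judged by eye on a 0–9 scale versus control, 3–4 weeks after dosing. Dosing is into flood water kept 1.5–3 cm over the soil, at about 0.0313–0.500 kg/ha in aqueous/acetone 50/50 v/v, on 3–5 cm weeds and 1.5–2.5-leaf rice seedlings.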
smiles,measurement,setting,value
"CCOC(=O)CN1C(=O)CS(=O)(=O)C1=Nc1cc(-n2c(=O)cc(C(F)(F)F)n(C)c2=O)c(F)cc1Cl [Compound 46, 2-{{2-Chloro-5-[3,6-dihydro-3-methyl-2,6-dioxo-4-(trifluoromethyl)-1(2H)-pyrimidinyl]-4-fluoro-phenyl}imino}-4-oxo-3-thiazolidineacetic acid, ethyl ester, 1,1-dioxide]",Postemergence herbicidal rating AMBEL,"AMBEL (Ragweed, Common); Rate 0.0313 kg/ha",0.0
same,Postemergence herbicidal rating AMBEL,"AMBEL (Ragweed, Common); Rate 0.0625 kg/ha",5.0
same,Postemergence herbicidal rating CASOB,CASOB (Sicklepod) [1]; Rate 0.0313 kg/ha,0.0
same,Postemergence herbicidal rating CASOB,CASOB (Sicklepod) [1]; Rate 0.0625 kg/ha,0.0
same,Postemergence herbicidal rating GALAP,GALAP (Galium); Rate 0.0313 kg/ha,0.0
same,Postemergence herbicidal rating GALAP,GALAP (Galium); Rate 0.0625 kg/ha,0.0
same,Postemergence herbicidal rating IPOHE,[2]; Rate 0.0313 kg/ha,3.0
same,Postemergence herbicidal rating IPOHE,[2]; Rate 0.0625 kg/ha,9.0
same,Preemergence herbicidal rating ABUTH,ABUTH (Velvetleaf); rate 0.1250 kg/ha,9.0
same,Preemergence herbicidal rating ABUTH,ABUTH (Velvetleaf); rate 0.2500 kg/ha,9.0
same,Preemergence herbicidal rating CASOB,CASOB (Sicklepod) [3]; rate 0.1250 kg/ha,0.0
same,Preemergence herbicidal rating CASOB,CASOB (Sicklepod) [3]; rate 0.2500 kg/ha,0.0
same,Preemergence herbicidal rating IPOHE,[4]; rate 0.1250 kg/ha,0.0
same,Preemergence herbicidal rating IPOHE,[4]; rate 0.2500 kg/ha,1.0
same,Preemergence herbicidal rating ECHCG,ECHCG (Barnyardgrass); rate 0.1250 kg/ha,0.0
same,Preemergence herbicidal rating ECHCG,ECHCG (Barnyardgrass); rate 0.2500 kg/ha,0.0
same,Preemergence herbicidal rating GLXMAW,[5]; rate 0.1250 kg/ha,0.0
same,Preemergence herbicidal rating GLXMAW,[5]; rate 0.2500 kg/ha,0.0
same,Preemergence herbicidal rating TRZAWR,[6]; rate 0.1250 kg/ha,0.0
same,Preemergence herbicidal rating TRZAWR,[6]; rate 0.2500 kg/ha,0.0
same,Preemergence herbicidal rating ZEAMX,"ZEAMX (Corn, Field); rate 0.1250 kg/ha",0.0
same,Preemergence herbicidal rating ZEAMX,"ZEAMX (Corn, Field); rate 0.2500 kg/ha",1.0
same,Herbicidal rating MOOVA,MOOVA (Monochoria); 0.0313 kg/ha,3.0
same,Herbicidal rating MOOVA,MOOVA (Monochoria); 0.0625 kg/ha,4.0
same,Herbicidal rating MOOVA,MOOVA (Monochoria); 0.1250 kg/ha,6.0
same,Herbicidal rating MOOVA,MOOVA (Monochoria); 0.2500 kg/ha,7.0
same,Herbicidal rating SAGPY,[7]; 0.0313 kg/ha,0.0
same,Herbicidal rating SAGPY,[7]; 0.0625 kg/ha,0.0
same,Herbicidal rating SAGPY,[7]; 0.1250 kg/ha,0.0
same,Herbicidal rating SAGPY,[7]; 0.2500 kg/ha,3.0
same,Herbicidal rating CYPIR,"CYPIR (Rice Flatsedge); rate 0.0313 kg/ha, 3-4 weeks after treatment",0.0
same,Herbicidal rating CYPIR,"CYPIR (Rice Flatsedge); rate 0.0625 kg/ha, 3-4 weeks after treatment",0.0
same,Herbicidal rating CYPIR,"CYPIR (Rice Flatsedge); rate 0.1250 kg/ha, 3-4 weeks after treatment",0.0
same,Herbicidal rating CYPIR,"CYPIR (Rice Flatsedge); rate 0.2500 kg/ha, 3-4 weeks after treatment",0.0
"C=CCN1C(=O)C(CC(=O)NC)SC1=Nc1cc(-n2c(=O)cc(C(F)(F)F)n(C)c2=O)c(F)cc1Cl (centres unmarked) [Compound 84, 3-Allyl-2-{{2-chloro-5-[3,6-dihydro-3-methyl-2,6-dioxo-4-(trifluoromethyl)-1(2H)-pyrimidinyl]-4-fluorophenyl}imino}-N-methyl-4-oxo-5-thiazolidineacetamide]",AMBEL herbicidal rating,"AMBEL (Ragweed, Common); rate 0.0156 kg/ha",4.0
same,AMBEL herbicidal rating,"AMBEL (Ragweed, Common); rate 0.0313 kg/ha",9.0
same,AMBEL herbicidal rating,"AMBEL (Ragweed, Common); rate 0.0625 kg/ha",9.0
same,AMBEL herbicidal rating,"AMBEL (Ragweed, Common); rate 0.1250 kg/ha",9.0
same,CASOB herbicidal rating,CASOB (Sicklepod) [1]; rate 0.0156 kg/ha,0.0
same,CASOB herbicidal rating,CASOB (Sicklepod) [1]; rate 0.0313 kg/ha,0.0
same,CASOB herbicidal rating,CASOB (Sicklepod) [1]; rate 0.0625 kg/ha,0.0
same,CASOB herbicidal rating,CASOB (Sicklepod) [1]; rate 0.1250 kg/ha,3.0
same,GALAP herbicidal rating,GALAP (Galium); rate 0.0156 kg/ha,1.0
same,GALAP herbicidal rating,GALAP (Galium); rate 0.0313 kg/ha,2.0
same,GALAP herbicidal rating,GALAP (Galium); rate 0.0625 kg/ha,4.0
same,GALAP herbicidal rating,GALAP (Galium); rate 0.1250 kg/ha,7.0
same,IPOHE herbicidal rating,[2]; rate 0.0156 kg/ha,9.0
same,IPOHE herbicidal rating,[2]; rate 0.0313 kg/ha,9.0
same,IPOHE herbicidal rating,[2]; rate 0.0625 kg/ha,9.0
same,IPOHE herbicidal rating,[2]; rate 0.1250 kg/ha,9.0
same,ABUTH rating,ABUTH (Velvetleaf); 0.0156 kg/ha,2.0
same,ABUTH rating,ABUTH (Velvetleaf); 0.0313 kg/ha,2.0
same,ABUTH rating,ABUTH (Velvetleaf); 0.0625 kg/ha,7.0
same,ABUTH rating,ABUTH (Velvetleaf); 0.1250 kg/ha,9.0
same,ABUTH rating,ABUTH (Velvetleaf); 0.2500 kg/ha,9.0
same,ABUTH rating,ABUTH (Velvetleaf); 0.5000 kg/ha,9.0
same,CASOB rating,CASOB (Sicklepod) [3]; 0.0156 kg/ha,0.0
same,CASOB rating,CASOB (Sicklepod) [3]; 0.0313 kg/ha,0.0
same,CASOB rating,CASOB (Sicklepod) [3]; 0.0625 kg/ha,0.0
same,CASOB rating,CASOB (Sicklepod) [3]; 0.1250 kg/ha,0.0
same,CASOB rating,CASOB (Sicklepod) [3]; 0.2500 kg/ha,0.0
same,CASOB rating,CASOB (Sicklepod) [3]; 0.5000 kg/ha,9.0
same,IPOHE rating,[4]; 0.0156 kg/ha,0.0
same,IPOHE rating,[4]; 0.0313 kg/ha,0.0
same,IPOHE rating,[4]; 0.0625 kg/ha,0.0
same,IPOHE rating,[4]; 0.1250 kg/ha,1.0
same,IPOHE rating,[4]; 0.2500 kg/ha,9.0
same,IPOHE rating,[4]; 0.5000 kg/ha,9.0
same,ECHCG rating,ECHCG (Barnyardgrass); 0.0156 kg/ha,0.0
same,ECHCG rating,ECHCG (Barnyardgrass); 0.0313 kg/ha,0.0
same,ECHCG rating,ECHCG (Barnyardgrass); 0.0625 kg/ha,0.0
same,ECHCG rating,ECHCG (Barnyardgrass); 0.1250 kg/ha,0.0
same,ECHCG rating,ECHCG (Barnyardgrass); 0.2500 kg/ha,2.0
same,ECHCG rating,ECHCG (Barnyardgrass); 0.5000 kg/ha,9.0
same,GLXMAW rating,[5]; 0.0156 kg/ha,0.0
same,GLXMAW rating,[5]; 0.0313 kg/ha,0.0
same,GLXMAW rating,[5]; 0.0625 kg/ha,0.0
same,GLXMAW rating,[5]; 0.1250 kg/ha,3.0
same,GLXMAW rating,[5]; 0.2500 kg/ha,5.0
same,GLXMAW rating,[5]; 0.5000 kg/ha,7.0
same,TRZAWR rating,[6]; 0.0156 kg/ha,0.0
same,TRZAWR rating,[6]; 0.0313 kg/ha,0.0
same,TRZAWR rating,[6]; 0.0625 kg/ha,0.0
same,TRZAWR rating,[6]; 0.1250 kg/ha,4.0
same,TRZAWR rating,[6]; 0.2500 kg/ha,6.0
same,TRZAWR rating,[6]; 0.5000 kg/ha,9.0
same,ZEAMX rating,"ZEAMX (Corn, Field); 0.0156 kg/ha",0.0
same,ZEAMX rating,"ZEAMX (Corn, Field); 0.0313 kg/ha",0.0
same,ZEAMX rating,"ZEAMX (Corn, Field); 0.0625 kg/ha",0.0
same,ZEAMX rating,"ZEAMX (Corn, Field); 0.1250 kg/ha",5.0
same,ZEAMX rating,"ZEAMX (Corn, Field); 0.2500 kg/ha",8.0
same,ZEAMX rating,"ZEAMX (Corn, Field); 0.5000 kg/ha",9.0
same,MOOVA herbicidal effect rating,MOOVA (Monochoria); 0.0313 kg/ha,9.0
same,MOOVA herbicidal effect rating,MOOVA (Monochoria); 0.0625 kg/ha,9.0
same,MOOVA herbicidal effect rating,MOOVA (Monochoria); 0.1250 kg/ha,9.0
same,MOOVA herbicidal effect rating,MOOVA (Monochoria); 0.2500 kg/ha,9.0
same,SAGPY herbicidal effect rating,[7]; 0.0313 kg/ha,2.0
same,SAGPY herbicidal effect rating,[7]; 0.0625 kg/ha,6.0
same,SAGPY herbicidal effect rating,[7]; 0.1250 kg/ha,7.0
same,SAGPY herbicidal effect rating,[7]; 0.2500 kg/ha,9.0
same,Herbicidal rating CYPIR,"CYPIR (Rice Flatsedge); Rate 0.0313 kg/ha, rated 3 to 4 weeks after treatment",3.0
same,Herbicidal rating CYPIR,"CYPIR (Rice Flatsedge); Rate 0.0625 kg/ha, rated 3 to 4 weeks after treatment",7.0
same,Herbicidal rating CYPIR,"CYPIR (Rice Flatsedge); Rate 0.1250 kg/ha, rated 3 to 4 weeks after treatment",9.0
same,Herbicidal rating CYPIR,"CYPIR (Rice Flatsedge); Rate 0.2500 kg/ha, rated 3 to 4 weeks after treatment",9.0
